≈ marks a conversion by molar mass, not a printed value. Entries after “also recorded” stand apart in the source; their conditions may differ.
Columns and labels:
MRSA [1] = experiment: Agar diffusion method, inhibition zones, MRSA; format: cell-based, methicillin-resistant Staphylococcus aureus; conditions: Staphylococcus aureus, 24 h, read-out: IZ (inhibition zone)
[2] = biological target: T1, dihydrofolate reductase (DHFR) enzyme (Homo sapiens, UniProt P00374); experiment: In vitro DHFR inhibition assay; format: biochemical
T1 sequence (P00374 1-187): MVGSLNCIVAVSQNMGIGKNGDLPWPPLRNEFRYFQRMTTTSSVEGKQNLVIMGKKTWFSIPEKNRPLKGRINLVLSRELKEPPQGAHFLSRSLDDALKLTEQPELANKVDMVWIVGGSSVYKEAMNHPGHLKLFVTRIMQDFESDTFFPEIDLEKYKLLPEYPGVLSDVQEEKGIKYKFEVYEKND

P. aeruginosa [3] = experiment: Agar diffusion method, inhibition zones, P. aeruginosa; format: cell-based, Pseudomonas aeruginosa; conditions: 24 h; for zone of inhibition at 10000 µg/mL: Pseudomonas aeruginosa, read-out: IZ (inhibition zone); for IZ (inhibition zone): P. aeruginosa, agar well diffusion, 100 μL of 10 mg/mL in DMSO, 37 °C
P. aeruginosa [4] = experiment: Resazurin-based 96-well plate microdilution MIC, P. aeruginosa; format: cell-based; conditions: Pseudomonas aeruginosa, 24 h
MRSA [5] = experiment: Resazurin-based 96-well plate microdilution MIC, MRSA; format: cell-based, methicillin-resistant Staphylococcus aureus; conditions: Staphylococcus aureus, 24 h
MRSA-induced keratitis = MRSA-induced keratitis in rats; format: in vivo, rat (Sprague–Dawley)

Structure (SMILES) | zone of inhibition at 10000 µg/mL (MRSA [1]) | IC50 [2] | zone of inhibition at 10000 µg/mL (P. aeruginosa [3]) | MIC (P. aeruginosa [4]) | MIC (MRSA [5]) | area % of corneal opacity (infection intensity) (MRSA-induced keratitis; 5c dispersion, versus MRSA group) | inflammation score (MRSA-induced keratitis; H&E cornea, score 0-4, versus MRSA group) | corneal inflammation, histological evaluation (H&E) (MRSA-induced keratitis; MRSA/5c dispersion group compared to MRSA group) | IZ (inhibition zone) (P. aeruginosa [3])
COc1cc(C(=O)/C=C\c2cn(-c3ccccc3)nc2-c2ccccc2)cc(OC)c1OC [compound 4, (Z)-3-(1,3-Diphenyl-1H-pyrazol-4-yl)-1-(3,4,5-trimethoxyphenyl)prop-2-en-1-one] | 17 mm | 5 ± 0.23 µM | 15 mm |  |  |  |  |  | 
COc1cc(-c2cc(-c3cn(-c4ccccc4)nc3-c3ccccc3)[nH]c(=O)n2)cc(OC)c1OC [compound 5a, 6-(1,3-Diphenyl-1H-pyrazol-4-yl)-4-(3,4,5-trimethoxyphenyl)pyrimidine-2(1H)-one] | 25 mm | 4.2 ± 0.2 µM | 22 mm | 8320 µM (≈ 4000 µg/mL) | 2080 µM (≈ 1000 µg/mL) |  |  |  | 
COc1cc(-c2cc(-c3cn(-c4ccccc4)nc3-c3ccccc3)[nH]c(=S)n2)cc(OC)c1OC [compound 5b, 6-(1,3-Diphenyl-1H-pyrazol-4-yl)-4-(3,4,5-trimethoxyphenyl)pyrimidine-2(1H)-thione] | 23 mm | 4.1 ± 0.19 µM | 20 mm | 4030 µM (≈ 2000 µg/mL) | 1010 µM (≈ 500 µg/mL) |  |  |  | 
COc1cc(-c2cc(-c3cn(-c4ccccc4)nc3-c3ccccc3)[nH]c(=N)n2)cc(OC)c1OC [compound 5c, 6-(1,3-Diphenyl-1H-pyrazol-4-yl)-4-(3,4,5-trimethoxyphenyl)pyrimidine-2(1H)-imine] | 28 mm | 4 ± 0.18 µM | 24 mm | 2080 µM (≈ 1000 µg/mL) | 521 µM (≈ 250 µg/mL) | significantly (P < 0.0001) reduced infection in rats; also recorded: significant reduction in the area % of corneal opacity | significant decrease in inflammation score | mild to moderate inflammatory cell infiltration | 
COc1cc(C2=NNC(c3cn(-c4ccccc4)nc3-c3ccccc3)C2)cc(OC)c1OC (stereo not drawn) [compound 6a, 1′,3′-Diphenyl-5-(3,4,5-trimethoxyphenyl)-3,4-dihydro-1′H,2H-3,4′-bipyrazole] | 15 mm | 5.56 ± 0.27 µM | 6 mm |  |  |  |  |  | 
COc1cc(C2=NN(c3ccccc3)C(c3cn(-c4ccccc4)nc3-c3ccccc3)C2)cc(OC)c1OC (stereo not drawn) [compound 6b, 1′,2,3′-Triphenyl-5-(3,4,5-trimethoxyphenyl)-3,4-dihydro-1′H,2H-3,4′-bipyrazole] | 6 mm | 6.45 ± 0.31 µM | 0 mm |  |  |  |  |  | no detectable activity
COc1cc(C2=NN(C(C)=O)C(c3cn(-c4ccccc4)nc3-c3ccccc3)C2)cc(OC)c1OC (stereo not drawn) [compound 7, 1-(1′,3′-Diphenyl-5-(3,4,5-trimethoxyphenyl)-3,4-dihydro-1′H,2H-[3,4′-bipyrazol]-2-yl)ethan-1-one] | 11 mm | 6.7 ± 0.31 µM | 0 mm |  |  |  |  |  | no detectable activity
C[C@H]1COc2c(N3CCN(C)CC3)c(F)cc3c(=O)c(C(=O)O)cn1c23 [levofloxacin, reference compound] | 31 mm |  | 27 mm | 1380 µM (≈ 500 µg/mL) | 346 µM (≈ 125 µg/mL) |  |  |  | 
